For orientation: GI50 means the concentration at which growth is held to half of that of the control. The low end stands for more potent growth inhibition, the high end for less potent growth inhibition. Broadly, the TGI is the concentration giving total growth inhibition. Higher therefore signals less potent growth arrest.

Data set [1] relates to 184B5 (non-malignant mammary epithelium). The experiment in a line: MTT viability assay, 184B5. Particulars: 184B5 non-malignant, 72 h, MTT; for CC50: read-out: LC50 (the source's name). Type of data set: cell-based. In general terms: Tetrazolium dyes change colour on reduction, which living cells bring about.
For data set [2], the system named is HT-29 (colorectal adenocarcinoma). Briefly: MTT viability assay, HT-29. The note with it: HT-29, 72 h, MTT; for CC50: read-out: LC50 (the source's name). Format: cell-based. The method, boiled down: (§1)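 Cells (10,000/well; RPMI or, for BEAS-2B, DMEM with 10% FBS; 37 °C, 5% CO2) were treated 72 h with six concentrations from 0.1 to 100 μM, diluted from 0.01 M DMSO stock. MTT was added for 4 h, formazan dissolved in DMSO, absorbance read at 550 nm; GI50, TGI and LC50 derived.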

Data set [3] relates to BEAS-2B (non-malignant bronchial epithelial). The experiment in a line: MTT viability assay, BEAS-2B. Format: cell-based. The note with it: BEAS-2B non-malignant, 72 h, MTT; for CC50: read-out: LC50 (the source's name). The procedure, abridged: as §1
Data set [4] concerns MCF7 cells. The experiment in a line: Cell cycle analysis (propidium iodide, Apo-Direct kit, flow cytometry). Type of data set: cell-based. Particulars: for concentration from which the increase of cells in G2/M phase was evident: MCF7, 24 h; for effect on cell cycle distribution: MCF7, increasing concentrations 24 h or time-course; for time of significant decrease in the G0/G1 phase / treatment time after which an increase in G2/M phase was found: MCF7, time-course, 15 μM compound 5 or 30 μM compound 15. The protocol:
Cell cycle arrest is the target of many anticancer drugs, as it is the first step to decrease cell proliferation. To gain a better understanding of the mechanism of these compounds, the effect of compounds 5 and 15 on cell cycle distribution was analyzed. MCF7 cells were treated with increasing concentrations of both compounds for 24 h or with 15 μM 5 or 30 μM 15 for different times. The negative control was treated with vehicle, and camptothecin (6 μM) was used as a positive control. Samples were stained with propidium iodide using the Apo-Direct kit (BD Pharmingen, Madrid, Spain) and processed by flow cytometry.
3 × 10^6 or 2 × 10^6 MCF7 cells were seeded in 25 cm^2 flasks for treatments up to 24 h or 48 h, respectively. DMSO (vehicle) or the dissolved compounds were added 24 h after seeding and cells were incubated for different times at 37 °C under 5% CO2. Cell cycle and cell death were analyzed simultaneously with the Apo-Direct kit (BD Pharmingen, Madrid, Spain), following the manufacturer’s protocol. Briefly, cells were fixed in 1% paraformaldehyde for 45 min at 0 °C, washed with PBS and incubated for at least 30 min in 70% ethanol on ice. Cells were then stained both with FITC-dUTP (1 h, 37 °C) and propidium iodide (30 min, room temperature) and analyzed by flow cytometry using a Coulter Epics XL cytometer (Beckman Coulter, Brea, CA, USA).
Figure 4 Compounds 5 and 15 induce cell cycle arrest in G2/M phase in MCF7. MCF7 cells were treated with different concentrations of compound 5, 15 or vehicle (control) for 24 h or for different time periods. Cells were stained with propidium iodide with the Apo-Direct kit and analyzed by flow cytometry. (A) Quantification of cell cycle distribution after 24 h treatment with increasing concentrations of compound 5; (B) Representative experiment of A; (C) Quantification of cell cycle distribution after 24 h treatment with increasing concentrations of compound 15; (D) Representative experiment of C; (E) Cell cycle distribution after treatment with vehicle, 15 μM of compound 5 or 30 μM of compound 15 for different times. Results represent the mean ± SEM of at least three independent experiments performed in duplicate. * p < 0.05, ** p < 0.01.
A general note: In flow cytometry, cells or beads pass a laser one at a time.

In data set [5] the test system is glutathione-glutaredoxin (GSH-Grx) system. The experiment in a line: Glutaredoxin/glutathione assay (NADPH consumption). Format: biochemical. Particulars: 1 mM GSH, 200 μM NADPH, yeast GR, 1 μM hGrx1 when required, 45 min. On the procedure: The assay was performed as previously described, with minor modifications and adapted for a 96-well plate. A mixture of 0.1 M Tris pH 8, 2 mM EDTA pH = 8, 0.1 mg/mL BSA, 1 mM GSH, 200 μM NADPH, and 0.008 OD/mL yeast GR was prepared (all reagents were purchased from Sigma-Aldrich). Reactions were performed with 1 μM hGrx1 (IMCO Corporation, Stockholm, Sweden) when corresponding and different concentrations of the compounds. A 100 μL mixture was added, and the final volume was adjusted to 110 μL per well. Consumption of NADPH was monitored at A340 on a VersaMax microplate reader (Molecular Devices) for 45 min.
Figure 7 Compounds 5 and 15 are substrates for thioredoxin reductase but not for the glutathione-glutaredoxin system. (A) NADPH consumption indicating reduction of compounds 5, 15 or MSA as control by thioredoxin reductase. The reaction mixture contained 100 nM TrxR1, 227 μM NADPH and the corresponding amount of compound in TE buffer (20 mM Tris, 2 mM EDTA pH = 8); (B) NADPH consumption indicating reduction of MSA by glutathione in the presence or absence of glutaredoxin. The reaction mixture contained the corresponding amount of compound, 0.1 M Tris, 2 mM EDTA pH = 8, 0.1 mg/mL BSA, 1 mM GSH, 200 μM NADPH, 0.008 OD/mL yeast GR and 1 μM hGrx1 when required. Only results for MSA are shown, as compounds 5 and 15 were not reduced.

Consider “Dimethyl 2,5-furandicarboselenoate [Compound 15]”, for which, in data set [1], growth was halved (GI50) at 3.5 ± 1.1 µM, the TGI turned out to be 6.4 ± 0.5 µM and the CC50 came to 9.2 ± 0.9 µM. Also, in data set [2], the GI50 is 3 ± 0.5 µM, the TGI was determined as 6.6 ± 0.4 µM and the CC50 is 35.8 ± 5 µM. In data set [3], the GI50 came out at 2.6 ± 0.8 µM, the TGI amounted to 5.6 ± 0.9 µM and the CC50 stood at 8.6 ± 1.2 µM. For the same substance, in data set [4], the “concentration from which the increase of cells in G2/M phase was evident” value was ≥ 7 µM, the “effect on cell cycle distribution” value is listed as “increased the percentage of cells in G2/M phase”, the “time of significant decrease in the G0/G1 phase” value is 16 h and the “treatment time after which an increase in G2/M phase was found” value worked out at 8 h. Moreover, the “reduction by GSH in the presence or absence of glutaredoxin (NADPH consumption)” value in data set [5] is listed as “not reduced”.
On to “Methyl 3-chlorothiophen-2-carboselenoate [Compound 5]”, for which, in data set [1], the GI50 was 3.5 ± 0.4 µM, the TGI came out at 5.9 ± 0.3 µM and the CC50 was found to be 8.3 ± 0.2 µM. In addition, in data set [2], the GI50 was 3.6 ± 0.3 µM, the TGI was found to be 6.3 ± 0.2 µM and the CC50 was determined as 8.9 ± 0.2 µM. Moreover, in data set [3], the GI50 was found to be 2.7 ± 0.5 µM, the TGI worked out at 5.3 ± 0.7 µM and the CC50 turned out to be 8 ± 1 µM. Further, in data set [4], the “concentration from which the increase of cells in G2/M phase was evident” value was ≥ 15 µM, the “effect on cell cycle distribution” value is “increased the percentage of cells in G2/M phase”, the “time of significant decrease in the G0/G1 phase” value was found to be 8 h and the “treatment time after which an increase in G2/M phase was found” value is 8 h. The “reduction by GSH in the presence or absence of glutaredoxin (NADPH consumption)” value in data set [5] is reported as “not reduced”.

These data come from publication PMC6152192, “Novel Methylselenoesters as Antiproliferative Agents” (Molecules : A Journal of Synthetic Chemistry and Natural …, 2017).
